# Like-named read-outs stand apart in the source and are kept apart here.
# Assays:
# [1] = test system: rice; test: Test B flooded paddy test; format: in vivo, Oryza sativa; details: Oryza sativa, 336 h, 1000 g ai/ha, visual rating, scale 0 to 100 (0 no effect, 100 complete control), 13 to 15 days, read-out: Rice plant response rating
# Procedure, shortened: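 Formulated test chemicals went onto postemergence plants measuring 2 to 18 cm, at one to four leaves. For the paddy assay, species had reached two leaves. Scoring took place 13–15 days later by eye, relative to untreated plants, using 0 for no effect up to 100 for full control.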
# [2] = test system: large crabgrass; test: Test B pre-/postemergence herbicide test; format: in vivo, Digitaria sanguinalis; details: Digitaria sanguinalis; for pest or weed control at 500 g/ha: 500 g ai/ha; for pest or weed control at 125 g/ha: 125 g ai/ha
# Procedure, shortened: (§1)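 Plants compared with untreated controls 13–15 days post-treatment and given a visual 0–100 injury score. Applications: preemergence to seeds; postemergence at 1- to 4-leaf (2–18 cm); paddy species flooded, 2-leaf stage. Vehicle non-phytotoxic, surfactant included.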
# [3] = test system: morningglory; test: Test B pre-/postemergence herbicide test; format: in vivo, Ipomoea coccinea; details: Ipomoea, 336 h; for pest or weed control at 500 g/ha: Postemergence, 500 g ai/ha, visual rating after 13 to 15 days; for pest or weed control at 125 g/ha: 125 g ai/ha
# Procedure, shortened: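 Pre: seeds sown, then sprayed. Post: 1–4-leaf plants (2–18 cm) sprayed at the same time. Paddy: flooded, treated at 2-leaf stage. Formulation: non-phytotoxic solvent with surfactant. Greenhouse 13–15 days; visual 0–100 score relative to controls.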
# [4] = test system: lambsquarters; test: Test B pre-/postemergence herbicide test; format: in vivo, Chenopodium album; details: Chenopodium album, 336 h; for pest or weed control at 500 g/ha: Postemergence, 500 g ai/ha, visual rating after 13 to 15 days; for pest or weed control at 125 g/ha: 125 g ai/ha
# Procedure, shortened: as §1
# [5] = test system: corn; test: Test B pre-/postemergence herbicide test; format: in vivo, Zea mays; details: Zea mays; for Corn plant response rating (crop injury, 0 = no effect, 100 = complete kill) at 500 g/ha / plant injury at 125 g/ha: post-emergence, scale 0 (no effect) to 100 (complete control); for Corn plant response rating (crop injury, 0 = no effect, 100 = complete kill) at 500 g/ha: Postemergence, visual rating after 13 to 15 days; for Corn plant response rating (crop injury, 0 = no effect, 100 = complete kill) at 500 g/ha / plant injury at 500 g/ha: 500 g ai/ha; for plant injury at 125 g/ha: postemergence, visual rating; for plant injury at 125 g/ha / Corn plant response rating (crop injury, 0 = no effect, 100 = complete kill) at 125 g/ha: 125 g ai/ha; for plant injury at 125 g/ha / plant injury at 500 g/ha: read-out: Corn plant response rating; for plant injury at 500 g/ha / Corn plant response rating (crop injury, 0 = no effect, 100 = complete kill) at 125 g/ha: pre-emergence; for plant injury at 500 g/ha: Preemergence, scale 0 to 100; for Corn plant response rating (crop injury, 0 = no effect, 100 = complete kill) at 125 g/ha: preemergence, 0 to 100 scale, 0 is no effect, 100 is complete control
# Procedure, shortened: as §1
# [6] = test system: wheat; test: Test B postemergence herbicide test; format: in vivo, Triticum aestivum; details: scale 0 (no effect) to 100 (complete control); for Plant response rating, Wheat: Postemergence, 500 g ai/ha, visual rating after 13 to 15 days; for plant injury at 125 g/ha: Triticum aestivum, post-emergence, 336 h, postemergence, 125 g ai/ha, visual rating, read-out: Wheat plant response rating
# Procedure, shortened: (§2)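 Each value is a visual 0–100 response rating taken against controls 13 to 15 days after treatment in the greenhouse. Plants received formulated chemical postemergence at the 1- to 4-leaf stage or, in flooded paddy, at the 2-leaf stage.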
# [7] = test system: pigweed; test: Test B pre-/postemergence herbicide test; format: in vivo, Amaranthus retroflexus; details: Amaranthus retroflexus, 336 h; for pest or weed control at 500 g/ha: Postemergence, 500 g ai/ha, visual rating after 13 to 15 days; for pest or weed control at 125 g/ha: 125 g ai/ha
# Procedure, shortened: as §1
# [8] = test system: giant foxtail; test: Test B pre-/postemergence herbicide test; format: in vivo, Setaria faberi; details: Setaria faberi, 336 h; for pest or weed control at 500 g/ha: 500 g ai/ha; for pest or weed control at 125 g/ha: 125 g ai/ha
# Procedure, shortened: as §1
# [9] = test system: velvetleaf; test: Test B pre-/postemergence herbicide test; format: in vivo, Abutilon theophrasti; details: Abutilon theophrasti, 336 h; for pest or weed control at 500 g/ha: Postemergence, 500 g ai/ha, visual rating after 13 to 15 days; for pest or weed control at 125 g/ha: 125 g ai/ha
# Procedure, shortened: as §1
# [10] = test system: ducksalad; test: Test B flooded paddy test; format: in vivo, Heteranthera limosa; details: Heteranthera limosa, 336 h, 1000 g ai/ha, visual rating, scale 0 to 100 (0 no effect, 100 complete control), 13 to 15 days, read-out: Ducksalad plant response rating
# Procedure, shortened: (§3)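 Read-out: visual comparison with controls, scored 0 to 100, where 100 means complete control and 0 no effect. Formulated chemicals were applied postemergence to plants 2–18 cm tall (1- to 4-leaf), or to flooded-paddy plants at the 2-leaf stage, then held 13 to 15 days under glass.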
# [11] = test system: blackgrass; test: Test B postemergence herbicide test; format: in vivo, Alopecurus myosuroides; details: scale 0 (no effect) to 100 (complete control); for pest or weed control at 125 g/ha: Alopecurus myosuroides, post-emergence, 336 h, postemergence, 125 g ai/ha, visual rating, read-out: Blackgrass plant response rating; for Plant response rating, Blackgrass: Postemergence, 500 g ai/ha, visual rating after 13 to 15 days
# Procedure, shortened: as §3
# [12] = test system: wild oat; test: Test B postemergence herbicide test; format: in vivo, Avena fatua; details: scale 0 (no effect) to 100 (complete control); for pest or weed control at 125 g/ha: Avena fatua, post-emergence, 336 h, postemergence, 125 g ai/ha, visual rating, read-out: Oat, Wild plant response rating; for Plant response rating, Oat, Wild: Postemergence, 500 g ai/ha, visual rating after 13 to 15 days
# Procedure, shortened: as §2
# [13] = test system: small flower umbrella sedge; test: Test B flooded paddy test; format: in vivo, Cyperus difformis; details: Cyperus difformis, 336 h, 1000 g ai/ha, visual rating, scale 0 to 100 (0 no effect, 100 complete control), 13 to 15 days, read-out: Sedge, Umbrella plant response rating
# Procedure, shortened: as §3
# [14] = test system: Surinam grass; test: Test B pre-/postemergence herbicide test; format: in vivo, Urochloa decumbens; details: Urochloa decumbens; for pest or weed control at 500 g/ha: Postemergence, 500 g ai/ha, visual rating after 13 to 15 days; for pest or weed control at 125 g/ha: 125 g ai/ha
# Procedure, shortened: as §1
# [15] = test system: barnyardgrass; test: Test B flooded paddy test; format: in vivo, Echinochloa crus-galli; details: Echinochloa crus-galli, 336 h, 1000 g ai/ha, visual rating, scale 0 to 100 (0 no effect, 100 complete control), 13 to 15 days, read-out: Barnyardgrass plant response rating
# Procedure, shortened: as §3
# [16] = post-emergence, Postemergence, visual rating after 13 to 15 days, scale 0 (no effect) to 100 (complete control), read-out: Plant response rating, Crabgrass, Large
# [17] = post-emergence, postemergence, visual rating, scale 0 (no effect) to 100 (complete control), read-out: Crabgrass, Large plant response rating
# [18] = pre-emergence, Preemergence, scale 0 to 100, read-out: Crabgrass, Large plant response rating
# [19] = pre-emergence, preemergence, 0 to 100 scale, 0 is no effect, 100 is complete control, read-out: Plant response rating, Crabgrass, Large
# [20] = post-emergence, scale 0 (no effect) to 100 (complete control), read-out: Plant response rating, Morningglory
# [21] = post-emergence, postemergence, visual rating, scale 0 (no effect) to 100 (complete control), read-out: Morningglory plant response rating
# [22] = pre-emergence, preemergence, 0 to 100 scale, 0 is no effect, 100 is complete control, read-out: Plant response rating, Morningglory
# [23] = post-emergence, scale 0 (no effect) to 100 (complete control), read-out: Plant response rating, Lambsquarters
# [24] = post-emergence, postemergence, visual rating, scale 0 (no effect) to 100 (complete control), read-out: Lambsquarters plant response rating
# [25] = pre-emergence, preemergence, 0 to 100 scale, 0 is no effect, 100 is complete control, read-out: Plant response rating, Lambsquarters
# [26] = post-emergence, scale 0 (no effect) to 100 (complete control), read-out: Plant response rating, Pigweed
# [27] = post-emergence, postemergence, visual rating, scale 0 (no effect) to 100 (complete control), read-out: Pigweed plant response rating
# [28] = pre-emergence, preemergence, 0 to 100 scale, 0 is no effect, 100 is complete control, read-out: Plant response rating, Pigweed
# [29] = post-emergence, Postemergence, visual rating after 13 to 15 days, scale 0 (no effect) to 100 (complete control), read-out: Plant response rating, Foxtail, Giant
# [30] = post-emergence, postemergence, visual rating, scale 0 (no effect) to 100 (complete control), read-out: Foxtail, Giant plant response rating
# [31] = pre-emergence, Preemergence, scale 0 to 100, read-out: Foxtail, Giant plant response rating
# [32] = pre-emergence, preemergence, 0 to 100 scale, 0 is no effect, 100 is complete control, read-out: Plant response rating, Foxtail, Giant
# [33] = post-emergence, scale 0 (no effect) to 100 (complete control), read-out: Plant response rating, Velvetleaf
# [34] = post-emergence, postemergence, visual rating, scale 0 (no effect) to 100 (complete control), read-out: Velvetleaf plant response rating
# [35] = pre-emergence, preemergence, 0 to 100 scale, 0 is no effect, 100 is complete control, read-out: Plant response rating, Velvetleaf
# [36] = post-emergence, scale 0 (no effect) to 100 (complete control), read-out: Plant response rating, Surinam Grass
# [37] = post-emergence, postemergence, visual rating, scale 0 (no effect) to 100 (complete control), read-out: Surinam Grass plant response rating
# [38] = pre-emergence, preemergence, 0 to 100 scale, 0 is no effect, 100 is complete control, read-out: Plant response rating, Surinam Grass
Structure (SMILES),plant injury at 1000 g/ha [1],"pest or weed control at 500 g/ha [2, 16]","pest or weed control at 125 g/ha [2, 17]","pest or weed control at 500 g/ha [2, 18]","pest or weed control at 125 g/ha [2, 19]","pest or weed control at 500 g/ha [3, 20]","pest or weed control at 125 g/ha [3, 21]","pest or weed control at 125 g/ha [3, 22]","pest or weed control at 500 g/ha [4, 23]","pest or weed control at 125 g/ha [4, 24]","pest or weed control at 125 g/ha [4, 25]","Corn plant response rating (crop injury, 0 = no effect, 100 = complete kill) at 500 g/ha [5]",plant injury at 125 g/ha [5],plant injury at 500 g/ha [5],"Corn plant response rating (crop injury, 0 = no effect, 100 = complete kill) at 125 g/ha [5]","Plant response rating, Wheat [6]",plant injury at 125 g/ha [6],"pest or weed control at 500 g/ha [7, 26]","pest or weed control at 125 g/ha [7, 27]","pest or weed control at 125 g/ha [7, 28]",also measured
"CCOC(=O)c1cccc(NC(=O)c2cc(C(C)(C)C)nn2CC)c1 [Compound 80, ethyl 3-[[[3-(1,1-dimethylethyl)-1-ethyl-1H-pyrazol-5-yl]carbonyl]-amino]benzoate]",60%,100%,100%,0%,0%,100%,100%,0%,80%,70%,0%,50%,20%,10%,0%,30,20%,100%,100%,0%,"pest or weed control at 500 g/ha [8, 29]: 90%; pest or weed control at 125 g/ha [8, 30]: 50%; pest or weed control at 500 g/ha [8, 31]: 70%; pest or weed control at 125 g/ha [8, 32]: 20%; pest or weed control at 500 g/ha [9, 33]: 100%; pest or weed control at 125 g/ha [9, 34]: 90%; pest or weed control at 125 g/ha [9, 35]: 20%; pest or weed control at 1000 g/ha [10]: 90%; pest or weed control at 125 g/ha [11]: 20%; Plant response rating, Blackgrass [11]: 40; pest or weed control at 125 g/ha [12]: 30%; Plant response rating, Oat, Wild [12]: 50; pest or weed control at 1000 g/ha [13]: 80%; pest or weed control at 500 g/ha [14, 36]: 90%; pest or weed control at 125 g/ha [14, 37]: 90%; pest or weed control at 125 g/ha [14, 38]: 0%; pest or weed control at 1000 g/ha [15]: 80%"
"CCn1nc(C(C)(C)C)cc1C(=O)Nc1cccc(C(=O)OCCF)c1 [Compound 82, 2-fluoroethyl 3-[[[3-(1,1-dimethylethyl)-1-ethyl-1H-pyrazol-5-yl]-carbonyl]amino]benzoate]",40%,20%,10%,0%,0%,70%,10%,0%,50%,20%,0%,30%,20%,0%,0%,20,20%,100%,80%,0%,"pest or weed control at 500 g/ha [8, 29]: 10%; pest or weed control at 125 g/ha [8, 30]: 10%; pest or weed control at 500 g/ha [8, 31]: 0%; pest or weed control at 125 g/ha [8, 32]: 0%; pest or weed control at 500 g/ha [9, 33]: 90%; pest or weed control at 125 g/ha [9, 34]: 80%; pest or weed control at 125 g/ha [9, 35]: 0%; pest or weed control at 1000 g/ha [10]: 20%; pest or weed control at 125 g/ha [11]: 0%; Plant response rating, Blackgrass [11]: 10; pest or weed control at 125 g/ha [12]: 10%; Plant response rating, Oat, Wild [12]: 30; pest or weed control at 1000 g/ha [13]: 40%; pest or weed control at 500 g/ha [14, 36]: 60%; pest or weed control at 125 g/ha [14, 37]: 30%; pest or weed control at 125 g/ha [14, 38]: 0%; pest or weed control at 1000 g/ha [15]: 30%"

# Reference: patent publication US20060069132A1, “Azolecarboxamide herbicides” (priority 2004, published 2006)
